Experimental data from patent US6124291A, “Pyrrolo[1,2-a]pyrazine-1,4-dione serine protease inhibitors” (Warner-Lambert Company, priority 1998, dated 2000).

How the values were obtained:
trypsin = biological target: T1, trypsin (Bos taurus, UniProt P00760); test: Determination of Trypsin IC50 (chromogenic substrate S2222); format: biochemical; details: 60 minutes incubation at room temperature
T1 sequence (P00760 24-246): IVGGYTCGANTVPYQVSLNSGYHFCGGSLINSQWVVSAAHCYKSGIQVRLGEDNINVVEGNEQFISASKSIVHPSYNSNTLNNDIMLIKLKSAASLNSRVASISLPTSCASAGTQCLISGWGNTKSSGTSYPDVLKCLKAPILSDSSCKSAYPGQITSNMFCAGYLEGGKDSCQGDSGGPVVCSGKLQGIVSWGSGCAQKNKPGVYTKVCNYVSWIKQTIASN
Method: (§1) The ability of compounds to act as inhibitors of trypsin catalytic activity is assessed by determination of that concentration of test substance that inhibits by 50% (IC50) the ability of trypsin to cleave the chromogenic substrate S2222 (N-Bz-L-Ile-L-Glu-L-Gly-L-Arg-p-nitroanilide.cndot.HCl). Typically, trypsin in 10 mM HEPES, 100 mM NaCl, 0.05% BSA, and 0.1% PEG-8000, and the test substance in DMSO are incubated for 60 minutes at room temperature. To this mixture is added S2222 and the velocity of S2222 hydrolysis measured by observing the intensity of absorbance at 405 nm over 5 minutes.

human thrombin = human thrombin (Homo sapiens, UniProt P00734); test: Determination of Thrombin Ki (fluorogenic substrate Tos-Gly-Pro-Arg-AMC); format: biochemical; details: 50 mM Tris-HCl pH 7.52 at 37° C., 0.1 M NaCl, 0.1% poly(ethylene glycol) 8000, room temperature
Method: Compounds of the present invention may be prepared for assay by dissolving them in buffer to give solutions ranging in concentrations from 1 to 100 μM. In an assay to determine the inhibitory dissociation constant, Ki, for a given compound, a chromogenic or fluorogenic substrate of thrombin is added to a solution containing a test compound and thrombin; the resulting catalytic activity of the enzyme is spectrophotometrically determined. This assay is well-known to those skilled in the art and is commonly used to determine antithrombotic activity.
The affinity of inhibitors for thrombin was measured according to the procedures described in (DiMaio, et al., J. Biol. Chem., 1990; 265:21698). Inhibition of amidolytic activity of human thrombin was measured fluorometrically using Tos-Gly-Pro-Arg-AMC as a fluorogenic substrate in 50 mM Tris-HCl buffer (pH 7.52 at 37° C.) containing 0.1 M NaCl and 0.1% poly(ethylene glycol) 8000 at room temperature. Buffer substrate and inhibitor were mixed, and the reaction was initiated by adding the enzyme solution. Initial velocities were recorded at several inhibitor and substrate concentrations. Kinetic parameters were determined by fitting the data to a general equation describing enzyme inhibition (Segel, Enzyme Kinetics, Wiley Interscience Publications, 1993). […]

Factor Xa = Factor Xa (Homo sapiens, UniProt P00742); test: Determination of Factor Xa IC50 (chromogenic substrate S2765); format: biochemical; details: 60 minutes incubation at room temperature
Sequence of Factor Xa (P00742 235-488 limits assumed): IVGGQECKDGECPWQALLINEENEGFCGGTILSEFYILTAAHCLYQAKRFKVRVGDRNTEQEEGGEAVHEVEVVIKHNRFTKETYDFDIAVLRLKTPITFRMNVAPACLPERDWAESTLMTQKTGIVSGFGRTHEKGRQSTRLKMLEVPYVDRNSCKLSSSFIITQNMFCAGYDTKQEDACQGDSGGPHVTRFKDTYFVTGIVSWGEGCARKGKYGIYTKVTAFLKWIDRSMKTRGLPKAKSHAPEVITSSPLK
Sequence of Factor Xa (P00742 41-179 limits assumed): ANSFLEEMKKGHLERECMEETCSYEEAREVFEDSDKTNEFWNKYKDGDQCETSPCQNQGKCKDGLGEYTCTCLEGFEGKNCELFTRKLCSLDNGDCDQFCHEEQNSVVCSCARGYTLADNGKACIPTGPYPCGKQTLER
Method: as §1, with “Factor Xa” for “trypsin”, “S2765 (N-CBz-D-Arg-L-Gly-L-Arg-p-nitroanilide.cndot.2 HCl).” for “S2222 (N-Bz-L-Ile-L-Glu-L-Gly-L-Arg-p-nitroanilide.cndot.HCl).”, “PEG-8000” for “PEG-8000,”, “S2765” for “S2222”

carotid artery = test: FeCl3-induced carotid arterial injury model (arterial thrombosis); format: in vivo, rat (male Sprague-Dawley); details: rat; IV bolus 0.75 mg/kg then IV infusion 50 μg/kg/min; time to occlusion in drug-treated divided by control; 60 minutes monitoring
Method: The FeCl3-- induced injury to the carotid artery in rats was induced according to the method described by Kurz K. D., Main R. W., Sandusky G. E., Thrombosis Research, 1990; 60:269-280 and Schumacher W. A., et al., J. Pharmacology and Experimental Therapeutics, 1993; 267:1237-1242.
Male, Sprague-Dawley rats (375-410 g) were anesthetized with urethane (1500 mg/kg ip). Animals were laid on a 37° C. heating pad. The carotid artery was exposed through a midline cervical incision. Careful blunt dissection was used to isolate the vessel from the carotid sheath. Using forceps, the artery was lifted to provide sufficient clearance to insert two small pieces of polyethylene tubing (PE-205) underneath it. A temperature probe (Physitemp MT23/3) was placed between one of the pieces of tubing and the artery. Injury was induced by topical application on the carotid artery above the temperature probe of a small disc (3 mm dia.) of Whatman No. 1 filter paper previously dipped in a 35% solution of FeCl3. […] The vessel temperature was monitored for 60 minutes after application of FeCl3 as an indication of blood flow. Vessel temperature changes were recorded on a thermistor (Cole-Palmer Model 08533-41).
The time between the FeCl3 application and the time at which the vessel temperature decreased abruptly (>2.4° C.) was recorded as the time to occlusion of the vessel. […]

- IC50 (trypsin): < 1 nM
- Ki (human thrombin): 3 nM
- IC50 (Factor Xa): 30 nM
Structure (SMILES): N=C(N)NCCC[C@H](NC(=O)[C@@H]1CC[C@H]2C(=O)N(CCCc3ccccc3)CC(=O)N12)C(=O)c1nccs1 [Example 11, [6S-[6α(R*),8aα]]-1,4-Dioxo-2-(3-phenyl-propyl)-octahydropyrrolo[1,2-a]pyrazine-6-carboxylic acid [4-guanidino-1-(thiazol-2-carbonyl)-butyl]-amide]
- Fold Shift in MOT (mean occlusion time) (carotid artery): > 3.3
